Reference: patent US11427606B2, “Azithromycin derivatives containing a phosphonium ion as anticancer agents” (Rising Tide Foundation, priority 2017, dated 2022)

test system: MDA-231 cancer cells; test: Inhibition of proliferation assay: cell confluence (IncuCyte imaging); assay type: cell-based; settings: compound at 10 uM; MDA-231 cells; IncuCyte images every 3 h over 4-5 d; relative confluence normalised to time zero
From the text: Inhibition of Proliferation Assay
The confluence value is a surrogate for cell proliferation and growth. The value is expressed as a percent confluence, which represents the fraction of culture dish-surface that is occupied by cells. As the number of cells in the dish increases over time due to proliferation, so will their coverage of that surface increase. Expansion of the cell population on the cell culture-dish surface and confluence have mostly a linear relationship until the cells on the plate surface begin to reach saturation or maximum density.
Confluence is determined based on image analysis. Image based software can identify objects in the image field base on changes to pixel density in a grey scale image. The software can then assign a mask to those pixels within the object. Objects can be ‘gated’ out based on size and shape. To determine cell confluence, images of cells are first masked as objects. The surface area of the image that is masked is measured and compared to the total surface area of the culture dish surface to obtain a percent confluence.
MDA-231 cancer cells were obtained from ATCC. Cells were cultured in Dulbecco's Modified Eagle Medium (DMEM) supplemented with 10% Fetal Bovine Serum (FBS), 2 mM Glutamax, 1 mM Non Essential Amino Acid (NEAA) solution and 1 mM sodium pyruvate. […] Final DMSO concentrations were […]. Images were acquired with an IncuCyte Live Cell Imaging microscopy (Essen Bioscience) at every 3 h under cell culture conditions with 10× objective over 4-5 d. Cell confluence was calculated from one field of view per well using the IncuCyte in-built algorithm. Relative confluence values were obtained by normalising each value to the time zero value in each sample.

Row | Molecule | % Confluence
1 | CC[C@H]1OC(=O)[C@H](C)[C@@H](O[C@H]2C[C@@](C)(OC)[C@@H](O)[C@H](C)O2)[C@H](C)[C@@H](O[C@@H]2O[C@H](C)C[C@H](N(C)C)[C@H]2O)[C@](C)(O)C[C@@H](C)CN(C(=O)CCCCCCC[P+](c2ccccc2)(c2ccccc2)c2ccccc2CN(C)C)[C@H](C)[C@@H](O)[C@]1(C)O [Example 17, {8-[(2R,3S,4R,5R,8R,10R,11R,12S,13S,14R)-11-{[(2S,3R,4S,6R)-4-(dimethylamino)-3-hydroxy-6-methyloxan-2-yl]oxy}-2-ethyl-3,4,10-trihydroxy-13-{[(2R,4R,5S,6S)-5-hydroxy-4-methoxy-4,6-dimethyloxan-2-yl]oxy}-3,5,8,10,12,14-hexamethyl-15-oxo-1-oxa-6-azacyclopentadecan-6-yl]-8-oxooctyl}({2-[(dimethylamino)methyl]phenyl})diphenylphosphonium hexafluorophosphate(V)] | 93.1%
2 | CC[C@H]1OC(=O)[C@H](C)[C@@H](O)[C@H](C)[C@@H](O[C@@H]2O[C@H](C)C[C@H](N(C)C)[C@H]2O)[C@](C)(O)C[C@@H](C)CN(CCCCCCCC[P+](c2ccccc2)(c2ccccc2)c2ccc(N(C)C)cc2)[C@H](C)[C@@H](O)[C@]1(C)O.[I-] [Example 21] | 89.9%
3 | CC[C@H]1OC(=O)[C@H](C)[C@@H](O[C@H]2C[C@@](C)(OC)[C@@H](O)[C@H](C)O2)[C@H](C)[C@@H](O[C@@H]2O[C@H](C)C[C@H](N(C)C)[C@H]2O)[C@](C)(O)C[C@@H](C)CN(C(=O)CCCCCCC[P+](c2cc(C)cc(C)c2)(c2cc(C)cc(C)c2)c2cc(C)cc(C)c2)[C@H](C)[C@@H](O)[C@]1(C)O [Example 16, {8-[(2R,3S,4R,5R,8R,10R,11R,12S,13S,14R)-11-{[(2S,3R,4S,6R)-4-(dimethylamino)-3-hydroxy-6-methyloxan-2-yl]oxy}-2-ethyl-3,4,10-trihydroxy-13-{[(2R,4R,5S,6S)-5-hydroxy-4-methoxy-4,6-dimethyloxan-2-yl]oxy}-3,5,8,10,12,14-hexamethyl-15-oxo-1-oxa-6-azacyclopentadecan-6-yl]-8-oxooctyl}tris(3,5-dimethylphenyl)phosphonium hexafluorophosphate(V)] | 10%
4 | CC[C@H]1OC(=O)[C@H](C)[C@@H](O[C@H]2C[C@@](C)(OC)[C@@H](O)[C@H](C)O2)[C@H](C)[C@@H](O[C@@H]2O[C@H](C)C[C@H](N(C)C)[C@H]2O)[C@](C)(O)C[C@@H](C)CN(C(=O)CCCCCCC[P+](c2ccccc2-c2c(OC(C)C)cccc2OC(C)C)(C2CCCCC2)C2CCCCC2)[C@H](C)[C@@H](O)[C@]1(C)O [Example 6, [2′,6′-bis(propan-2-yloxy)-[1,1′-biphenyl]-2-yl]dicyclohexyl{8-[(2R,3S,4R,5R,8R,10R,11R,12S,13S,14R)-11-{[(2S,3R,4S,6R)-4-(dimethylamino)-3-hydroxy-6-methyloxan-2-yl]oxy}-2-ethyl-3,4,10-trihydroxy-13-{[(2R,4R,5S,6S)-5-hydroxy-4-methoxy-4,6-dimethyloxan-2-yl]oxy}-3,5,8,10,12,14-hexamethyl-15-oxo-1-oxa-6-azacyclopentadecan-6-yl]-8-oxooctyl}phosphonium hexafluorophosphate(V)] | 4%
5 | CC[C@H]1OC(=O)[C@H](C)[C@@H](O[C@H]2C[C@@](C)(OC)[C@@H](O)[C@H](C)O2)[C@H](C)[C@@H](O[C@@H]2O[C@H](C)C[C@H](N(C)C)[C@H]2O)[C@](C)(O)C[C@@H](C)CN(C(=O)CCCCCCCCCCC[P+](c2ccccc2)(c2ccccc2)c2cnn(C)c2)[C@H](C)[C@@H](O)[C@]1(C)O.[Cl-] [Example 28, {12-[(2R,3S,4R,5R,8R,10R,11R,12S,13S,14R)-11-{[(2S,3R,4S,6R)-4-(dimethylamino)-3-hydroxy-6-methyloxan-2-yl]oxy}-2-ethyl-3,4,10-trihydroxy-13-{[(2R,4R,5S,6S)-5-hydroxy-4-methoxy-4,6-dimethyloxan-2-yl]oxy}-3,5,8,10,12,14-hexamethyl-15-oxo-1-oxa-6-azacyclopentadecan-6-yl]-12-oxododecyl}(1-methyl-1H-pyrazol-4-yl)diphenylphosphonium chloride] | 16%
6 | tris(4-chlorophenyl)({8-[(2R,3S,4R,5R,8R,10R,11R,12S,13S,14R)-11-{[(2S,3R,4S,6R)-4-(dimethylamino)-3-hydroxy-6-methyloxan-2-yl]oxy}-2-ethyl-3,4,10-trihydroxy-13-{[(2R,4R,5S,6S)-5-hydroxy-4-methoxy-4,6-dimethyloxan-2-yl]oxy}-3,5,8,10,12,14-hexamethyl-15-oxo-1-oxa-6-azacyclopentadecan-6-yl]-8-oxooctyl})phosphoniumhexafluorophosphate(V) [Example 4] | 87.7%
7 | CC[C@H]1OC(=O)[C@H](C)[C@@H](O[C@H]2C[C@@](C)(OC)[C@@H](O)[C@H](C)O2)[C@H](C)[C@@H](O[C@@H]2O[C@H](C)C[C@H](N(C)C)[C@H]2O)[C@](C)(O)C[C@@H](C)CN(C(=O)CCCCCCCCCCC[P+](C)(c2ccccc2)c2ccccc2)[C@H](C)[C@@H](O)[C@]1(C)O.[Cl-] [Example 22, {12-[(2R,3S,4R,5R,8R,10R,11R,12S,13S,14R)-11-{[(2S,3R,4S,6R)-4-(dimethylamino)-3-hydroxy-6-methyloxan-2-yl]oxy}-2-ethyl-3,4,10-trihydroxy-13-{[(2R,4R,5S,6S)-5-hydroxy-4-methoxy-4,6-dimethyloxan-2-yl]oxy}-3,5,8,10,12,14-hexamethyl-15-oxo-1-oxa-6-azacyclopentadecan-6-yl]-12-oxododecyl}(methyl)diphenylphosphonium chloride] | 137%
8 | CC[C@H]1OC(=O)[C@H](C)[C@@H](O[C@H]2C[C@@](C)(OC)[C@@H](O)[C@H](C)O2)[C@H](C)[C@@H](O[C@@H]2O[C@H](C)C[C@H](N(C)C)[C@H]2O)[C@](C)(O)C[C@@H](C)CN(CCCCCC[P+](C2CCCCC2)(C2CCCCC2)C2CCCCC2)[C@H](C)[C@@H](O)[C@]1(C)O.[I-] [Example 9] | 70.9%
9 | CC[C@H]1OC(=O)[C@H](C)[C@@H](O[C@H]2C[C@@](C)(OC)[C@@H](O)[C@H](C)O2)[C@H](C)[C@@H](O[C@@H]2O[C@H](C)C[C@H](N(C)C)[C@H]2OC(C)=O)[C@](C)(O)C[C@@H](C)CN(C)[C@H](C)[C@@H](OC(=O)NCCCCCCCCCC[P+](C)(C)c2ccccc2)[C@]1(C)O.[Br-] [Example 38, (2S,3R,4S,6R)-2-{[(2R,3R,4R,5R,8R,10R,11R,12S,13S,14R)-4-[({10-[dimethyl(phenyl)phosphoniumyl]decyl}carbamoyl)oxy]-2-ethyl-3,10-dihydroxy-13-{[(2R,4R,5S,6S)-5-hydroxy-4-methoxy-4,6-dimethyloxan-2-yl]oxy}-3,5,6,8,10,12,14-heptamethyl-15-oxo-1-oxa-6-azacyclopentadecan-11-yl]oxy}-4-(dimethylamino)-6-methyloxan-3-yl acetate bromide] | 135%
10 | CC[C@H]1OC(=O)[C@H](C)[C@@H](O)[C@H](C)[C@@H](O[C@@H]2O[C@H](C)C[C@H](N(C)C)[C@H]2O)[C@](C)(O)C[C@@H](C)CN(CCCCCCCC[P+](c2ccc(OC)cc2)(c2ccc(OC)cc2)c2ccc(OC)cc2)[C@H](C)[C@@H](O)[C@]1(C)O [Example 20] | 14.8%
11 | CC[C@H]1OC(=O)[C@H](C)[C@@H](O[C@H]2C[C@@](C)(OC)[C@@H](O)[C@H](C)O2)[C@H](C)[C@@H](O[C@@H]2O[C@H](C)C[C@H](N(C)C)[C@H]2O)[C@](C)(O)C[C@@H](C)CN(C(=O)CCCCCCC[P+](c2ccc(OC)cc2)(c2ccc(OC)cc2)c2ccc(OC)cc2)[C@H](C)[C@@H](O)[C@]1(C)O.F[P-](F)(F)(F)(F)F [Example 5, {8-[(2R,3S,4R,5R,8R,10R,11R,12S,13S,14R)-11-{[(2S,3R,4S,6R)-4-(dimethylamino)-3-hydroxy-6-methyloxan-2-yl]oxy}-2-ethyl-3,4,10-trihydroxy-13-{[(2R,4R,5S,6S)-5-hydroxy-4-methoxy-4,6-dimethyloxan-2-yl]oxy}-3,5,8,10,12,14-hexamethyl-15-oxo-1-oxa-6-azacyclopentadecan-6-yl]-8-oxooctyl}tris(4-methoxyphenyl)phosphoniumhexafluorophosphate(V)] | 7.8%
12 | CC[C@H]1OC(=O)[C@H](C)[C@@H](O[C@H]2C[C@@](C)(OC)[C@@H](O)[C@H](C)O2)[C@H](C)[C@@H](O[C@@H]2O[C@H](C)C[C@H](N(C)C)[C@H]2O)[C@](C)(O)C[C@@H](C)CN(CCCCCCCC[P+](c2ccc(OC)cc2)(c2ccc(OC)cc2)c2ccc(OC)cc2)[C@H](C)[C@@H](O)[C@]1(C)O.[I-] [Example 13] | 4.8%
13 | CC[C@H]1OC(=O)[C@H](C)[C@@H](O[C@H]2C[C@@](C)(OC)[C@@H](O)[C@H](C)O2)[C@H](C)[C@@H](O[C@@H]2O[C@H](C)C[C@H](N(C)C)[C@H]2O)[C@](C)(O)C[C@@H](C)CN(C(=O)CCCCCCCCCCC[PH](c2ccccc2)(c2ccccc2)C(C)C)[C@H](C)[C@@H](O)[C@]1(C)O [Example 33, {12-[(2R,3S,4R,5R,8R,10R,11R,12S,13S,14R)-11-{[(2S,3R,4S,6R)-4-(dimethylamino)-3-hydroxy-6-methyloxan-2-yl]oxy}-2-ethyl-3,4,10-trihydroxy-13-{[(2R,4R,5S,6S)-5-hydroxy-4-methoxy-4,6-dimethyloxan-2-yl]oxy}-3,5,8,10,12,14-hexamethyl-15-oxo-1-oxa-6-azacyclopentadecan-6-yl]-12-oxododecyl}diphenyl(propan-2-yl)phosphonium chloride] | 5.6%
